From US20240336654A1, “ANTIMICROBIAL PEPTIDOMIMETICS” (SPEXIS AG, priority 2021, published 2024)
Where a SMILES comes first, the peptide text is derived from it. Bridges are numbered along the chain shown (N, C = ends). [ ]: non-standard residue; d: D form. Hyp = O=C(O)[C@@H]1C[C@@H](O)CN1; Cit = NC(=O)NCCC[C@H](N)C(=O)O; Agb = N=C(N)NCC[C@H](N)C(=O)O; Pen = CC(C)(S)[C@H](N)C(=O)O; dDab = NCC[C@@H](N)C(=O)O; Dab = NCC[C@H](N)C(=O)O

Columns and labels:
Format in all cases: cell-based
[1] = tested on: Escherichia coli ATCC 25922; details: ATCC 25922
Summary of the method: (§1)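 The MIC is the lowest peptide concentration, in μg/mL, with no visible growth after 18-20 h incubation at 35 °C. Serial two-fold peptide dilutions in water with 0.002% P-80 final were added to bacteria in cation-adjusted MHII broth, about 5×10^5 CFU/mL, following modified CLSI microdilution.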

[2] = tested on: Escherichia coli MCR-1 Af 45; details: MCR-1 Af 45
Summary of the method: as §1

[3] = tested on: Klebsiella pneumoniae SSI3010; details: SSI3010
Summary of the method: as §1

[4] = tested on: human red blood cells (hRBC); details: red cells of human, 1 h, 200 μg/mL
Summary of the method: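 Percent hemolysis derived from OD540 of supernatants relative to full lysis by 2.5% Triton X-100 (PBS baseline). Washed fresh human erythrocytes (20% v/v) were exposed to 200 μg/mL peptide for 1 h at 37 °C with shaking.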

Compound	Escherichia coli ATCC 25922 MIC [1] [µg/mL]	Escherichia coli MCR-1 Af45 MIC [2] [µg/mL]	Klebsiella pneumoniae SSI3010 MIC [3] [µg/mL]	Hemolysis at 0.2 g/L [4] [%]
CC[C@H](C)[C@H](NC(=O)[C@@H]1C[C@@H](O)CN1C(=O)[C@@H](N)C(C)C)C(=O)N[C@@H]1C(=O)N[C@@H](Cc2ccc(O)cc2)C(=O)N[C@@H](CO)C(=O)N[C@@H](CC(=O)O)C(=O)N[C@@H](CCCNC(=N)N)C(=O)N[C@@H](CCN)C(=O)N[C@@H]([C@@H](C)O)C(=O)N[C@H](CCN)C(=O)N[C@@H](CCCCN)C(=O)N[C@@H](CCN)C(=O)N[C@@H](CCN)C(=O)N[C@H](C(=O)N[C@@H](Cc2ccc(O)cc2)C(=O)O)CSSC1(C)C [Example 23, Val-Hyp-Ile-Pen-Tyr-Ser-Asp-Arg-Dab-Thr-^DDab-Lys-Dab-Dab-Cys-Tyr] (H-V[Hyp]I[Pen]YSDR[Dab]T[dDab]K[Dab][Dab]CY-OH; disulfide 4-15; N-terminus assumed)	0.5	0.25	0.5	<1
CC[C@H](C)[C@H](NC(=O)[C@@H]1C[C@@H](O)CN1C(=O)[C@@H](N)C(C)C)C(=O)N[C@@H]1C(=O)N[C@@H](Cc2ccc(O)cc2)C(=O)N[C@@H](CO)C(=O)N[C@@H](CO)C(=O)N[C@@H](CCCNC(=N)N)C(=O)N[C@@H](CCN)C(=O)N[C@@H]([C@@H](C)O)C(=O)N[C@H](CCN)C(=O)N[C@@H](CCCCN)C(=O)N[C@@H](CCN)C(=O)N[C@@H](CCN)C(=O)N[C@H](C(=O)N[C@@H](Cc2ccc(O)cc2)C(=O)O)CSSC1(C)C [Example 24, Val-Hyp-Ile-Pen-Tyr-Ser-Ser-Arg-Dab-Thr-^DDab-Lys-Dab-Dab-Cys-Tyr] (H-V[Hyp]I[Pen]YSSR[Dab]T[dDab]K[Dab][Dab]CY-OH; disulfide 4-15)	0.125	0.125	0.25	<1
CC[C@H](C)[C@H](NC(=O)[C@@H]1C[C@@H](O)CN1C(=O)[C@@H](N)C(C)C)C(=O)N[C@@H]1C(=O)N[C@@H](Cc2ccc(O)cc2)C(=O)N[C@@H](CO)C(=O)N[C@@H](CC(N)=O)C(=O)N[C@@H](CCCNC(=N)N)C(=O)N[C@@H](C)C(=O)N[C@@H]([C@@H](C)O)C(=O)N[C@H](CCN)C(=O)N[C@@H](CCCCN)C(=O)N[C@@H](CCN)C(=O)N[C@@H](CCN)C(=O)N[C@H](C(=O)N[C@@H](Cc2ccc(O)cc2)C(=O)O)CSSC1(C)C [Example 25, Val-Hyp-Ile-Pen-Tyr-Ser-Asn-Arg-Ala-Thr-^DDab-Lys-Dab-Dab-Cys-Tyr] (H-V[Hyp]I[Pen]YSNRAT[dDab]K[Dab][Dab]CY-OH; disulfide 4-15)	0.5	0.5	1	<1
CC[C@H](C)[C@H](NC(=O)[C@@H]1C[C@@H](O)CN1C(=O)[C@@H](N)C(C)C)C(=O)N[C@@H]1C(=O)N[C@@H](Cc2ccc(O)cc2)C(=O)N[C@@H](CO)C(=O)N[C@@H](CC(N)=O)C(=O)N[C@@H](CCCNC(=N)N)C(=O)N[C@H](CCN)C(=O)N[C@@H]([C@@H](C)O)C(=O)N[C@H](CCN)C(=O)N[C@@H](CCCCN)C(=O)N[C@@H](CCN)C(=O)N[C@@H](CCN)C(=O)N[C@H](C(=O)N[C@@H](Cc2ccc(O)cc2)C(=O)O)CSSC1(C)C [Example 26, Val-Hyp-Ile-Pen-Tyr-Ser-Asn-Arg-^DDab-Thr-^DDab-Lys-Dab-Dab-Cys-Tyr] (H-V[Hyp]I[Pen]YSNR[dDab]T[dDab]K[Dab][Dab]CY-OH; disulfide 4-15)	0.25	0.125	0.5	<1
CC[C@H](C)[C@H](NC(=O)[C@@H]1C[C@@H](O)CN1C(=O)[C@@H](N)C(C)C)C(=O)N[C@@H]1C(=O)N[C@@H](Cc2ccc(O)cc2)C(=O)N[C@@H](CO)C(=O)N[C@@H](CC(N)=O)C(=O)N[C@@H](CCCNC(=N)N)C(=O)N[C@@H](CCCNC(N)=O)C(=O)N[C@@H]([C@@H](C)O)C(=O)N[C@H](CCN)C(=O)N[C@@H](CCCCN)C(=O)N[C@@H](CCN)C(=O)N[C@@H](CCN)C(=O)N[C@H](C(=O)N[C@@H](Cc2ccc(O)cc2)C(=O)O)CSSC1(C)C [Example 27, Val-Hyp-Ile-Pen-Tyr-Ser-Asn-Arg-Cit-Thr-^DDab-Lys-Dab-Dab-Cys-Tyr] (H-V[Hyp]I[Pen]YSNR[Cit]T[dDab]K[Dab][Dab]CY-OH; disulfide 4-15)	0.25	0.25	0.5	<1
CC[C@H](C)[C@H](NC(=O)[C@@H]1C[C@@H](O)CN1C(=O)[C@@H](N)C(C)C)C(=O)N[C@@H]1C(=O)N[C@@H](Cc2ccc(O)cc2)C(=O)N[C@@H](CO)C(=O)N[C@@H](CC(N)=O)C(=O)N[C@@H](CCCNC(=N)N)C(=O)N[C@@H](CC(N)=O)C(=O)N[C@@H]([C@@H](C)O)C(=O)N[C@H](CCN)C(=O)N[C@@H](CCCCN)C(=O)N[C@@H](CCN)C(=O)N[C@@H](CCN)C(=O)N[C@H](C(=O)N[C@@H](Cc2ccc(O)cc2)C(=O)O)CSSC1(C)C [Example 28, Val-Hyp-Ile-Pen-Tyr-Ser-Asn-Arg-Asn-Thr-^DDab-Lys-Dab-Dab-Cys-Tyr] (H-V[Hyp]I[Pen]YSNRNT[dDab]K[Dab][Dab]CY-OH; disulfide 4-15)	0.25	0.25	0.5	<1
CC[C@H](C)[C@H](NC(=O)[C@@H]1C[C@@H](O)CN1C(=O)[C@@H](N)C(C)C)C(=O)N[C@@H]1C(=O)N[C@@H](Cc2ccc(O)cc2)C(=O)N[C@@H](CO)C(=O)N[C@@H](CC(N)=O)C(=O)N[C@@H](CCCNC(=N)N)C(=O)N[C@@H](CO)C(=O)N[C@@H]([C@@H](C)O)C(=O)N[C@H](CCN)C(=O)N[C@@H](CCCCN)C(=O)N[C@@H](CCN)C(=O)N[C@@H](CCN)C(=O)N[C@H](C(=O)N[C@@H](Cc2ccc(O)cc2)C(=O)O)CSSC1(C)C [Example 29, Val-Hyp-Ile-Pen-Tyr-Ser-Asn-Arg-Ser-Thr-^DDab-Lys-Dab-Dab-Cys-Tyr] (H-V[Hyp]I[Pen]YSNRST[dDab]K[Dab][Dab]CY-OH; disulfide 4-15)	0.25	0.125	0.5	<1
CC[C@H](C)[C@H](NC(=O)[C@@H]1C[C@@H](O)CN1C(=O)[C@@H](N)C(C)C)C(=O)N[C@@H]1C(=O)N[C@@H](Cc2ccc(O)cc2)C(=O)N[C@@H](CO)C(=O)N[C@@H](CC(N)=O)C(=O)N[C@@H](CCCNC(=N)N)C(=O)N[C@@H](CCNC(=N)N)C(=O)N[C@@H]([C@@H](C)O)C(=O)N[C@H](CCN)C(=O)N[C@@H](CCCCN)C(=O)N[C@@H](CCN)C(=O)N[C@@H](CCN)C(=O)N[C@H](C(=O)N[C@@H](Cc2ccc(O)cc2)C(=O)O)CSSC1(C)C [Example 30, Val-Hyp-Ile-Pen-Tyr-Ser-Asn-Arg-Agb-Thr-^DDab-Lys-Dab-Dab-Cys-Tyr] (H-V[Hyp]I[Pen]YSNR[Agb]T[dDab]K[Dab][Dab]CY-OH; disulfide 4-15)	0.125	0.0625	0.125	<1
CC[C@H](C)[C@H](NC(=O)[C@@H]1C[C@@H](O)CN1C(=O)[C@@H](N)C(C)C)C(=O)N[C@@H]1C(=O)N[C@@H](Cc2ccc(O)cc2)C(=O)N[C@@H](CO)C(=O)N[C@@H](CC(N)=O)C(=O)N[C@@H](CCCNC(=N)N)C(=O)N[C@@H](CCN)C(=O)N[C@@H](CC(N)=O)C(=O)N[C@H](CCN)C(=O)N[C@@H](CCCCN)C(=O)N[C@@H](CCN)C(=O)N[C@@H](CCN)C(=O)N[C@H](C(=O)N[C@@H](Cc2ccc(O)cc2)C(=O)O)CSSC1(C)C [Example 31, Val-Hyp-Ile-Pen-Tyr-Ser-Asn-Arg-Dab-Asn-^DDab-Lys-Dab-Dab-Cys-Tyr] (H-V[Hyp]I[Pen]YSNR[Dab]N[dDab]K[Dab][Dab]CY-OH; disulfide 4-15)	0.125	0.125	0.25	<1
CC[C@H](C)[C@H](NC(=O)[C@@H]1C[C@@H](O)CN1C(=O)[C@@H](N)C(C)C)C(=O)N[C@@H]1C(=O)N[C@@H](Cc2ccc(O)cc2)C(=O)N[C@@H](CCN)C(=O)N[C@@H](CC(N)=O)C(=O)N[C@@H](CCCNC(=N)N)C(=O)N[C@@H](CCN)C(=O)N[C@@H](CO)C(=O)N[C@H](CCN)C(=O)N[C@@H](CCCCN)C(=O)N[C@@H](CCN)C(=O)N[C@@H](CO)C(=O)N[C@H](C(=O)N[C@@H](Cc2ccc(O)cc2)C(=O)O)CSSC1(C)C [Example 32, Val-Hyp-Ile-Pen-Tyr-Dab-Asn-Arg-Dab-Ser-^DDab-Lys-Dab-Ser-Cys-Tyr] (H-V[Hyp]I[Pen]Y[Dab]NR[Dab]S[dDab]K[Dab]SCY-OH; disulfide 4-15)	1	0.5	0.5	<1
CC[C@H](C)[C@H](NC(=O)[C@@H]1C[C@@H](O)CN1C(=O)[C@@H](N)C(C)C)C(=O)N[C@@H]1C(=O)N[C@@H](Cc2ccc(O)cc2)C(=O)N[C@@H](CO)C(=O)N[C@@H](CC(N)=O)C(=O)N[C@@H](CCCNC(=N)N)C(=O)N[C@@H](CCN)C(=O)N[C@@H](CO)C(=O)N[C@H](CCN)C(=O)N[C@@H](CCCCN)C(=O)N[C@@H](CCN)C(=O)N[C@@H](CCN)C(=O)N[C@H](C(=O)N[C@@H](Cc2ccc(O)cc2)C(=O)O)CSSC1(C)C [Example 33, Val-Hyp-Ile-Pen-Tyr-Ser-Asn-Arg-Dab-Ser-^DDab-Lys-Dab-Dab-Cys-Tyr] (H-V[Hyp]I[Pen]YSNR[Dab]S[dDab]K[Dab][Dab]CY-OH; disulfide 4-15)	0.125	0.125	0.125	<1
